Assay results from the kinase profiling compilation of Christmann-Franck et al. (2016).

Columns and labels:
Experiment in all cases: radiometric filter-binding kinase assay, Kinase HotSpot
Settings in all cases: compound 0.5 µM; ATP 10 µM
[1] = target: PIM1 (human) (UniProt P11309)
[2] = target: VRK1 (human) (UniProt Q99986)
[3] = target: CLK4 (human) (UniProt Q9HAZ1)
[4] = target: ULK1 (human) (UniProt O75385)
[5] = target: NEK11 (human) (UniProt Q8NG66)
[6] = target: MET (human) (UniProt P08581)
Sequence of MET (human) (P08581 whole entry, looked up): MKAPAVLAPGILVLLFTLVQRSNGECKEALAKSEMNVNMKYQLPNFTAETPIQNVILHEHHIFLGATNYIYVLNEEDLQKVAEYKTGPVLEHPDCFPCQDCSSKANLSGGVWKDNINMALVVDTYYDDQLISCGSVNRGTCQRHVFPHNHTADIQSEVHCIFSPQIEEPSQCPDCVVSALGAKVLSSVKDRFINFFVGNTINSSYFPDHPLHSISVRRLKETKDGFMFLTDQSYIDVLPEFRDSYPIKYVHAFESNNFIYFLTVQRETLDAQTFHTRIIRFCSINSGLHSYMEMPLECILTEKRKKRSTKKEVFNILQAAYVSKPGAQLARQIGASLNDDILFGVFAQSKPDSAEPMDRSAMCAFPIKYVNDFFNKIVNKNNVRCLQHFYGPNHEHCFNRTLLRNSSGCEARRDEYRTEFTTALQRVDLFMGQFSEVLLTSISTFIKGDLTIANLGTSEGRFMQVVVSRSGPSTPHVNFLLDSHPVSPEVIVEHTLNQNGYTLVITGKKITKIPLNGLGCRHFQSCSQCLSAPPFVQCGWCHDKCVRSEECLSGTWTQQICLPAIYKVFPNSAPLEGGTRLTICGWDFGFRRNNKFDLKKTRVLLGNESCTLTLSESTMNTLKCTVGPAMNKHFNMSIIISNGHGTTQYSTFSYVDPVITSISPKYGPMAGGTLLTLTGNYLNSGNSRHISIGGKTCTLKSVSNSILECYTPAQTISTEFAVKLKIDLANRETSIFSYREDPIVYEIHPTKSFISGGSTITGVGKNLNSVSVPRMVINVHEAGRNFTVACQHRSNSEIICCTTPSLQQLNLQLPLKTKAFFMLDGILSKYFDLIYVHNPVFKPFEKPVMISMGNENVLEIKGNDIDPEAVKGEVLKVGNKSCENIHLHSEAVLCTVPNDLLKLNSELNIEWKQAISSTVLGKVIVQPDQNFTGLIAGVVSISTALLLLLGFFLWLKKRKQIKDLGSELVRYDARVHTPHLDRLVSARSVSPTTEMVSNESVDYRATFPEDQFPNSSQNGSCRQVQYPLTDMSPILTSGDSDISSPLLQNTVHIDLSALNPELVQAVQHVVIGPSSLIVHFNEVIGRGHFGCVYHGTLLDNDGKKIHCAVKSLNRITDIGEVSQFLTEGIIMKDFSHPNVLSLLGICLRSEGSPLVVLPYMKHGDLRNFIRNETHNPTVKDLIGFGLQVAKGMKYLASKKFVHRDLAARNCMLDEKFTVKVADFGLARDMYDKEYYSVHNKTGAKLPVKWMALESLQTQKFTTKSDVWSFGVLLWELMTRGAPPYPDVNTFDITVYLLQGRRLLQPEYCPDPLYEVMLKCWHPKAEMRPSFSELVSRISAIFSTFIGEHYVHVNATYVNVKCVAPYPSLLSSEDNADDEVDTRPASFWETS

[7] = target: EPHA2 (human) (UniProt P29317)
[8] = target: GRK6 (human) (UniProt P43250)
[9] = target: ROS1 (human) (UniProt P08922)
[10] = target: FGFR4 (human) (UniProt P22455)
[11] = target: CDK1 CCNB1 (human) (UniProt P06493+P14635)
[12] = target: NUAK2 (human) (UniProt Q9H093)
[13] = target: RPS6KA4 KD2 (human) (UniProt O75676)
Sequence of RPS6KA4 KD2 (human) (O75676 whole entry, looked up): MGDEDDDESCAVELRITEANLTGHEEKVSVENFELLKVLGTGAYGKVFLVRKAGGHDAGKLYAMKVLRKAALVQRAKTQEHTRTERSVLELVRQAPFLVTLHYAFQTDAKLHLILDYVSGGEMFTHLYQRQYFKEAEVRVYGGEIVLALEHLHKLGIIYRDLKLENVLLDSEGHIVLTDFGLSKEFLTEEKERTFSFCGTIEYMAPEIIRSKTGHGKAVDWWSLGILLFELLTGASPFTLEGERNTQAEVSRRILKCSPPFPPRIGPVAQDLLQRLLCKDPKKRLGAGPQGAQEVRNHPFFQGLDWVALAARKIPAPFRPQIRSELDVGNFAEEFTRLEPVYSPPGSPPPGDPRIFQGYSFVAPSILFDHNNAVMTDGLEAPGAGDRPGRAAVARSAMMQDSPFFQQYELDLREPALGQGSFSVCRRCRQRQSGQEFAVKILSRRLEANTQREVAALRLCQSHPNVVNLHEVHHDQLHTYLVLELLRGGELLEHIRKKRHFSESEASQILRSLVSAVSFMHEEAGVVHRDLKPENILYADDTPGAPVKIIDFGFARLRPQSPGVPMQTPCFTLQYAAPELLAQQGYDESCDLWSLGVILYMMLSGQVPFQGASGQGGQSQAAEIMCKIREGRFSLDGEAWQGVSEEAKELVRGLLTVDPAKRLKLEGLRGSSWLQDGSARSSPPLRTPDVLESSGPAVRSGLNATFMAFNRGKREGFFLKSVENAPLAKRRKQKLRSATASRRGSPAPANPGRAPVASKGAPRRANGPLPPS

[14] = target: GRK4 (human) (UniProt P32298)
[15] = target: ULK2 (human) (UniProt Q8IYT8)
[16] = tested on: FLT4 (human), P35916 [Q890H]
Sequence of FLT4 (human), P35916 [Q890H] (P35916 whole entry, looked up, stated change not applied): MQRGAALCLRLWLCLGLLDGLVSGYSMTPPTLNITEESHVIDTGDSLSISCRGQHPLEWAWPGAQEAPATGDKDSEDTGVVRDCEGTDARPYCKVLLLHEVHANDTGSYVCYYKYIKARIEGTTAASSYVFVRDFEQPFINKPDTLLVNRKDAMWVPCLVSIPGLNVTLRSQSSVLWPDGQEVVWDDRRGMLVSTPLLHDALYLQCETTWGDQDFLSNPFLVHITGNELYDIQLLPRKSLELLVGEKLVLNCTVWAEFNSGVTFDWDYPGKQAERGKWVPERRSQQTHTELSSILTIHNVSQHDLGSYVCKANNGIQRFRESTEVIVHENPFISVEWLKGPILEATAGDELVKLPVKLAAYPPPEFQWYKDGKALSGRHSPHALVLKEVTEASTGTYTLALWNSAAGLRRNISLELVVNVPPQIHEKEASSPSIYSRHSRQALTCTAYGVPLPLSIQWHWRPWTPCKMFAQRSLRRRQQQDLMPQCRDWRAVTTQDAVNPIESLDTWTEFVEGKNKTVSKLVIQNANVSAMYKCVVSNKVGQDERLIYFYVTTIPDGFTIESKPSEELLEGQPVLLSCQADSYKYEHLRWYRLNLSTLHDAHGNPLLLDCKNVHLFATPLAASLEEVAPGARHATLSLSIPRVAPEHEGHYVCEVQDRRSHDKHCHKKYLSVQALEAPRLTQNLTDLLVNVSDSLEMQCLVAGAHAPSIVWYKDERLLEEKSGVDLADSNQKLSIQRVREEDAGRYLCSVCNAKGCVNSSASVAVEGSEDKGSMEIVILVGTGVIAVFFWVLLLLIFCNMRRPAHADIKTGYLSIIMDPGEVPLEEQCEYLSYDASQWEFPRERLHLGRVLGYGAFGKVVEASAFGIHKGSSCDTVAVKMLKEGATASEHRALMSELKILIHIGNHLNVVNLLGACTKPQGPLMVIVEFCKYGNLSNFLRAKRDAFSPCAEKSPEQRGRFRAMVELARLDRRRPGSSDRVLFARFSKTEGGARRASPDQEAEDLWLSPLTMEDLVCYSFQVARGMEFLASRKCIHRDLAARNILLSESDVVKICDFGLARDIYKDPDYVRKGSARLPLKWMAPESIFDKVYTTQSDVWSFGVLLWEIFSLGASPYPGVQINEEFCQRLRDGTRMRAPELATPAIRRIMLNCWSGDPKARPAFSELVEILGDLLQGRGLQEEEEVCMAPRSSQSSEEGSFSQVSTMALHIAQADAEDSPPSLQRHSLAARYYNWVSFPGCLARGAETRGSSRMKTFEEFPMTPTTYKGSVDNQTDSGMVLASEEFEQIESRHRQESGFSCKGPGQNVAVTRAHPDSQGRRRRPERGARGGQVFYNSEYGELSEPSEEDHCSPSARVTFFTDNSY

[17] = target: WNK2 (human) (UniProt Q9Y3S1)
[18] = target: MAPKAPK3 (human) (UniProt Q16644)
[19] = target: HIPK2 (human) (UniProt Q9H2X6)
[20] = target: SRPK2 (human) (UniProt P78362)
[21] = target: PRKCE (human) (UniProt Q02156)
[22] = target: TBK1 (human) (UniProt Q9UHD2)
Sequence of TBK1 (human) (Q9UHD2 whole entry, looked up): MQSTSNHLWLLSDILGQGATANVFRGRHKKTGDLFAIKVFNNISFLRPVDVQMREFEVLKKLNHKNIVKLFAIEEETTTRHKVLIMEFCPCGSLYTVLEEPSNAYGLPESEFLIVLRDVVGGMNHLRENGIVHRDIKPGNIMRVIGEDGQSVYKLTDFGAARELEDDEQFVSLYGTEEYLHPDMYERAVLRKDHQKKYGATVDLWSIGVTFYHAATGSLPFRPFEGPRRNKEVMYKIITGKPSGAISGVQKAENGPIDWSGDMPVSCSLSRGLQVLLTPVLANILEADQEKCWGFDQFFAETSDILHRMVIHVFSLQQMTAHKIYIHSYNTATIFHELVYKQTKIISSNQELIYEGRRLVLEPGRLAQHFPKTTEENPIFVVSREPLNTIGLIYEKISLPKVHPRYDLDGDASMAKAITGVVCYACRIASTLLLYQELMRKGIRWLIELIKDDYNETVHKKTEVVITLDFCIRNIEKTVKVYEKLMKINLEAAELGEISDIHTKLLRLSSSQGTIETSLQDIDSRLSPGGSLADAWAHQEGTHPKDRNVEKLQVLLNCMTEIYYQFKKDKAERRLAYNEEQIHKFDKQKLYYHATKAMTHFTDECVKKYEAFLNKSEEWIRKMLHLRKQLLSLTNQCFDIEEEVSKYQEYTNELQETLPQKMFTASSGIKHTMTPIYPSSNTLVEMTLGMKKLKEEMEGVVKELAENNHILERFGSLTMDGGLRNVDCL

[23] = target: RPS6KA3 KD1 KD2 (human) (UniProt P51812)
[24] = target: NTRK1 (human) (UniProt P04629)
[25] = target: MAP3K9 (human) (UniProt P80192)
[26] = target: AURKA (human) (UniProt O14965)
[27] = target: PKN2 (human) (UniProt Q16513)
[28] = target: CDK4 CCND3 (human) (UniProt P30281+P11802)
[29] = target: PNCK (human) (UniProt Q6P2M8)
[30] = target: WEE1 (human) (UniProt P30291)
[31] = target: CDK2 CCNA2 (human) (UniProt P24941+P20248)
[32] = target: SRMS (human) (UniProt Q9H3Y6)
[33] = target: RPS6KB2 (human) (UniProt Q9UBS0)
Sequence of RPS6KB2 (human) (Q9UBS0 whole entry, looked up): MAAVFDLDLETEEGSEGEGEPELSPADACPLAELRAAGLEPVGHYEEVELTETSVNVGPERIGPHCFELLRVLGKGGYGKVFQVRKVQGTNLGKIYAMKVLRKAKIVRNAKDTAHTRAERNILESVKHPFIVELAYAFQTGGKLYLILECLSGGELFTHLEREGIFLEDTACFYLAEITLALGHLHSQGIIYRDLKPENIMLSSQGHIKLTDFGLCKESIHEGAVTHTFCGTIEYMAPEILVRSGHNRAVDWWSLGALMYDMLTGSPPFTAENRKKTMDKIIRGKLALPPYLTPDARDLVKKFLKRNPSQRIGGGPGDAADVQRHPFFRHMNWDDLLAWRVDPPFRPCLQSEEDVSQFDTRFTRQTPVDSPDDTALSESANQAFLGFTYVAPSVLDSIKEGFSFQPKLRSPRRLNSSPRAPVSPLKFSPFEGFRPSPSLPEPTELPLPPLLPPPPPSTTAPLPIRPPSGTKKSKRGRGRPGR

[34] = target: EPHA1 (human) (UniProt P21709)
[35] = target: CSNK2A1 (human) (UniProt P68400)
[36] = target: HCK (human) (UniProt P08631)
[37] = target: CDK5 CDK5R1 p25 (human) (UniProt Q00535+Q15078)
[38] = target: ACVRL1 (human) (UniProt P37023)
[39] = target: CSNK2A2 (human) (UniProt P19784)
Sequence of CSNK2A2 (human) (P19784 whole entry, looked up): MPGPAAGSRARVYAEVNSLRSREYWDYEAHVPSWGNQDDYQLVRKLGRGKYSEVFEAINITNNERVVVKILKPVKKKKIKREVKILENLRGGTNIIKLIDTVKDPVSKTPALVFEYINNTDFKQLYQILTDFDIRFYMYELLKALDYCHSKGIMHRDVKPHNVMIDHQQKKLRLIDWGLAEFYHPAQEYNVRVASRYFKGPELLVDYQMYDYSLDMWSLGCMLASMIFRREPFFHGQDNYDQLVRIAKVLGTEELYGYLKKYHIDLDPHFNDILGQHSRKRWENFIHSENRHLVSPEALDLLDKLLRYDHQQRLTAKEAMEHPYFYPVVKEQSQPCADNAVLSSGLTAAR

[40] = target: ERBB2 (human) (UniProt P04626)
[41] = target: EPHB3 (human) (UniProt P54753)

Compound | residual activity [1] [%] | residual activity [2] [%] | residual activity [3] [%] | residual activity [4] [%] | residual activity [6] [%] | residual activity [8] [%] | residual activity [9] [%] | residual activity [10] [%] | residual activity [11] [%] | residual activity [12] [%] | residual activity [13] [%] | residual activity [14] [%] | residual activity [15] [%] | residual activity [16] [%] | residual activity [17] [%] | residual activity [18] [%] | residual activity [19] [%] | residual activity [20] [%] | residual activity [21] [%] | residual activity [22] [%] | other results
CS(=O)(=O)CCNCc1ccc(-c2ccc3ncnc(Nc4ccc(OCc5cccc(F)c5)c(Cl)c4)c3c2)o1 | 99 | 101 | 115 | 95.4 | 84.1 | 101 | 107 | 96.6 | 100 | 95.1 | 93.4 | 90.3 | 104 | 93.3 | 102 | 103 | 104 | 88 | 98 | 103 | residual activity [5]: 107%; residual activity [7]: 99%; residual activity [23]: 105%; residual activity [24]: 99.2%; residual activity [25]: 112%; residual activity [26]: 81.5%; residual activity [27]: 92%; residual activity [28]: 104%; residual activity [29]: 98.1%; residual activity [30]: 97.5%; residual activity [31]: 94.5%; residual activity [32]: 97.9%; residual activity [33]: 100%; residual activity [34]: 99.3%; residual activity [35]: 121%; residual activity [36]: 86.5%; residual activity [37]: 90.4%; residual activity [38]: 105%; residual activity [39]: 101%
COc1cc(Nc2c(C#N)cnc3cc(OCCCN4CCN(C)CC4)c(OC)cc23)c(Cl)cc1Cl | 99.2 | 100 | 76.6 | 79.1 | 84.5 | 99.5 | 95.4 | 94.1 | 95.9 | 59.5 | 101 | 92.4 | 92.2 | 44.1 | 94.2 | 98.2 | 89 | 101 | 78 | 65.7 | residual activity [40]: 32.9%; residual activity [41]: 49.4%; residual activity [23]: 80.1%; residual activity [24]: 106%; residual activity [25]: 16.5%; residual activity [26]: 86%; residual activity [27]: 105%; residual activity [28]: 103%; residual activity [29]: 109%; residual activity [30]: 40.5%; residual activity [31]: 91.1%; residual activity [32]: 90.6%; residual activity [33]: 107%; residual activity [34]: 97.7%; residual activity [35]: 116%; residual activity [36]: 11.9%; residual activity [37]: 95.9%; residual activity [38]: 67.6%; residual activity [39]: 108%
N#C/C(=C\c1ccc(O)c(O)c1)C(=O)NCc1ccccc1 | 108 | 97 | 94 | 92.9 | 98.1 | 101 | 101 | 84.2 | 96.9 | 131 | 94.2 | 101 | 106 | 87.7 | 104 | 102 | 101 | 96.6 | 100 | 98.3 | residual activity [5]: 95.4%; residual activity [40]: 97.6%; residual activity [7]: 105%; residual activity [41]: 101%; residual activity [23]: 100%; residual activity [24]: 98.4%; residual activity [25]: 95.5%; residual activity [26]: 92.2%; residual activity [28]: 98%; residual activity [29]: 97.1%; residual activity [30]: 89.9%; residual activity [31]: 99.2%; residual activity [32]: 104%; residual activity [33]: 94.7%; residual activity [34]: 99.4%; residual activity [35]: 86.6%; residual activity [36]: 97.5%; residual activity [37]: 101%; residual activity [38]: 106%; residual activity [39]: 81.9%
